Consider 19 compounds from patent publication US9527832B2, “Substituted condensed pyrimidine compounds” (GRÜNENTHAL GMBH, priority 2013, dated 2016).

The target of the assay is T1, human PDE4B1 (Homo sapiens, UniProt Q07343).
T1 construct: host or cells: Sf9 cells
Briefly: cAMP HTRF assay to determine the activity of hPDE4B1. The format is biochemical. The conditions noted are these: for inhibition at 1 µM: Percentage inhibition of PDE4B at 1 μM test concentration; for IC50: dose response measurements with eight concentrations, reported as ranges, read-out: IC50. In a few lines:
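Sf9-expressed recombinant human PDE4B1 (4.8 U) in Tris-HCl/MgCl2/DTT/Tween 20 buffer pH 7.8, with cAMP at 40 nM final, 30 min at room temperature. Reaction stopped with IBMX 1 mM; remaining cAMP detected by HTRF (665/620 nm ratio). IC50 from eight-point dose-response, n=2.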
In general terms: In TR-FRET formats the signal depends on donor and acceptor labels being close together.

T1 sequence (Q07343 whole entry): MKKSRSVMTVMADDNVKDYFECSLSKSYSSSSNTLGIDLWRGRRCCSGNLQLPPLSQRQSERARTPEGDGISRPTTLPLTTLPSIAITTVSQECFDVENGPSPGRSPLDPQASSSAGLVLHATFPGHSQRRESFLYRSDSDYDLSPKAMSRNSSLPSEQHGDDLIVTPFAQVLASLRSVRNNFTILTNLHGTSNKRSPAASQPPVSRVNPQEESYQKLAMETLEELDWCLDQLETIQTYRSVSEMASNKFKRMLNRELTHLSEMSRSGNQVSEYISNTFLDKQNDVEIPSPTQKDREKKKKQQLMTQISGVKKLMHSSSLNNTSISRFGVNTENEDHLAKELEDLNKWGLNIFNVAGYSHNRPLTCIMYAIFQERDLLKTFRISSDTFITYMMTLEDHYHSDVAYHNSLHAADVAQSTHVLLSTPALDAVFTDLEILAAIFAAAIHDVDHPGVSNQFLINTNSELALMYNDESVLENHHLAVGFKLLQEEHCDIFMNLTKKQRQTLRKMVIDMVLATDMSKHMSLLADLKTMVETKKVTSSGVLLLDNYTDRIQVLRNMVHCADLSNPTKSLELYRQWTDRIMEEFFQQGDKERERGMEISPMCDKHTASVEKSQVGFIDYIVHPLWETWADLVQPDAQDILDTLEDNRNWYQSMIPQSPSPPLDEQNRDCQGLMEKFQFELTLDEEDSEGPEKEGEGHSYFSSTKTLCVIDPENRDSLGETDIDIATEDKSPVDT

For the compound `COC(=O)COc1ccc2c(c1)N(c1nc(-c3ccc(Cl)s3)nc3c1CCC3)CC2` [Compound No. 1-79, Methyl 2-((1-(2-(5-chlorothiophen-2-yl)-6,7-dihydro-5H-cyclopenta[d]pyrimidin-4-yl)indolin-6-yl)oxy)acetate], the inhibition – broadly, the drop in the measured response relative to a control, in per cent – at 1 µM turned out to be 88% and the IC50 (as a rule, the midpoint of a concentration-inhibition curve) was 100 to 1000 nM.
On the same counts, the results for `O=C(O)Cc1ccc2c(c1)CCN2c1nc(-c2cc3ccccc3s2)nc2c1C[S+]([O-])C2` (stereo not shown) [Compound No. 1-80, 2-(1-(2-(Benzo[b]thiophen-2-yl)-6-oxido-5,7-dihydrothieno[3,4-d]pyrimidin-4-yl)indolin-5-yl)acetic acid] are 108% and less than 100 nM.
On the same counts, the results for `O=C(O)Cc1ccc2c(c1)CCN2c1nc(-c2ccc3occc3c2)nc2c1C[S+]([O-])C2` (stereo not shown) [Compound No. 1-81, 2-(1-(2-(Benzofuran-5-yl)-6-oxido-5,7-dihydrothieno[3,4-d]pyrimidin-4-yl)indolin-5-yl)acetic acid] are 106% and less than 100 nM.
As to `COc1ccc(-c2nc3c(c(N4CCc5ccc(OCC(=O)N(C)C)cc54)n2)CS(=O)(=O)C3)cc1` [Compound No. 2-21, 2-((1-(2-(4-Methoxyphenyl)-6,6-dioxido-5,7-dihydrothieno[3,4-d]pyrimidin-4-yl)indolin-6-yl)oxy)-N,N-dimethylacetamide], the inhibition at 1 µM worked out at 88% and the IC50 is less than 100 nM.
On to `COc1ccc(-c2nc3c(c(N4CCc5ccc(OCC(=O)N(C)C)cc54)n2)CS(=O)(=O)C3)cc1Cl` [Compound No. 2-33, 2-((1-(2-(3-Chloro-4-methoxyphenyl)-6,6-dioxido-5,7-dihydrothieno[3,4-d]pyrimidin-4-yl)indolin-6-yl)oxy)-N,N-dimethylacetamide], for which the inhibition at 1 µM turned out to be 100% and the IC50 is less than 100 nM.
On the same counts, the results for `COc1ccc(-c2nc3c(c(N4CCc5ccc(OCC(=O)N(C)C)cc54)n2)C[S+]([O-])C3)cc1F` (stereo not shown) [Compound No. 2-36, 2-((1-(2-(3-Fluoro-4-methoxyphenyl)-6-oxido-5,7-dihydrothieno[3,4-d]pyrimidin-4-yl)indolin-6-yl)oxy)-N,N-dimethylacetamide] are 98% and less than 100 nM.
Take `COc1ccc(-c2nc3c(c(N4CCc5ccc(OCC(=O)N(C)C)cc54)n2)CS(=O)(=O)C3)cc1F` [Compound No. 2-37, 2-((1-(2-(3-Fluoro-4-methoxyphenyl)-6,6-dioxido-5,7-dihydrothieno[3,4-d]pyrimidin-4-yl)indolin-6-yl)oxy)-N,N-dimethylacetamide]: the inhibition at 1 µM was 96% and the IC50 was less than 100 nM.
On the same counts, the results for `CN(C)C(=O)COc1ccc2c(c1)N(c1nc(-c3ccc(F)c(F)c3)nc3c1C[S+]([O-])C3)CC2` (stereo not shown) [Compound No. 2-40, 2-((1-(2-(3,4-Difluorophenyl)-6-oxido-5,7-dihydrothieno[3,4-d]pyrimidin-4-yl)indolin-6-yl)oxy)-N,N-dimethylacetamide] are 119% and less than 100 nM.
Take `CN(C)C(=O)COc1ccc2c(c1)N(c1nc(-c3ccc(F)c(F)c3)nc3c1CS(=O)(=O)C3)CC2` [Compound No. 2-41, 2-((1-(2-(3,4-Difluorophenyl)-6,6-dioxido-5,7-dihydrothieno[3,4-d]pyrimidin-4-yl)indolin-6-yl)oxy)-N,N-dimethylacetamide]: the inhibition at 1 µM turned out to be 85% and the IC50 was less than 100 nM.
In the case of `CN(C)C(=O)COc1ccc2c(c1)N(c1nc(-c3ccc(Cl)s3)nc3c1CCC3)CC2` [Compound No. 2-42, 2-((1-(2-(5-Chlorothiophen-2-yl)-6,7-dihydro-5H-cyclopenta[d]pyrimidin-4-yl)indolin-6-yl)oxy)-N,N-dimethylacetamide], the inhibition at 1 µM was found to be 79% and the IC50 was less than 100 nM.
On the same counts, the results for `CN(C)C(=O)COc1ccc2c(c1)N(c1nc(-c3ccc(Cl)s3)nc3c1CS(=O)(=O)C3)CC2` [Compound No. 2-45, 2-((1-(2-(5-Chlorothiophen-2-yl)-6,6-dioxido-5,7-dihydrothieno[3,4-d]pyrimidin-4-yl)indolin-6-yl)oxy)-N,N-dimethylacetamide] are 105% and less than 100 nM.
Taken in the same sequence, the figures for `CN(C)C(=O)COc1ccc2c(c1)N(c1nc(-c3ccc(F)s3)nc3c1CCC3)CC2` [Compound No. 2-46, 2-((1-(2-(5-Fluorothiophen-2-yl)-6,7-dihydro-5H-cyclopenta[d]pyrimidin-4-yl)indolin-6-yl)oxy)-N,N-dimethylacetamide] were 94% and less than 100 nM.
On the same counts, the results for `CN(C)C(=O)COc1ccc2c(c1)N(c1nc(-c3ccc(F)s3)nc3c1CS(=O)(=O)C3)CC2` [Compound No. 2-49, 2-((1-(2-(5-Fluorothiophen-2-yl)-6,6-dioxido-5,7-dihydrothieno[3,4-d]pyrimidin-4-yl)indolin-6-yl)oxy)-N,N-dimethylacetamide] are 127% and less than 100 nM.
As to `CC(C)NC(=O)COc1ccc2c(c1)N(c1nc(-c3ccc(Cl)s3)nc3c1CS(=O)(=O)C3)CC2` [Compound No. 2-54, 2-((1-(2-(5-Chlorothiophen-2-yl)-6,6-dioxido-5,7-dihydrothieno[3,4-d]pyrimidin-4-yl)indolin-6-yl)oxy)-N-isopropylacetamide], the inhibition at 1 µM came out at 54% and the IC50 fell in the range of 100 to 1000 nM.
Consider `CCNC(=O)COc1ccc2c(c1)N(c1nc(-c3ccc(Cl)s3)nc3c1CS(=O)(=O)C3)CC2` [Compound No. 2-55, 2-((1-(2-(5-Chlorothiophen-2-yl)-6,6-dioxido-5,7-dihydrothieno[3,4-d]pyrimidin-4-yl)indolin-6-yl)oxy)-N-ethylacetamide], for which the inhibition at 1 µM stood at 52%.
On to `CN(C(=O)COc1ccc2c(c1)N(c1nc(-c3ccc(Cl)s3)nc3c1CS(=O)(=O)C3)CC2)C1CC1` [Compound No. 2-56, 2-((1-(2-(5-Chlorothiophen-2-yl)-6,6-dioxido-5,7-dihydrothieno[3,4-d]pyrimidin-4-yl)indolin-6-yl)oxy)-N-cyclopropyl-N-methylacetamide], for which the inhibition at 1 µM came to 68% and the IC50 is 100 to 1000 nM.
Taken in the same sequence, the figures for `CN(CC1CC1)C(=O)COc1ccc2c(c1)N(c1nc(-c3ccc(Cl)s3)nc3c1CS(=O)(=O)C3)CC2` [Compound No. 2-57, 2-((1-(2-(5-Chlorothiophen-2-yl)-6,6-dioxido-5,7-dihydrothieno[3,4-d]pyrimidin-4-yl)indolin-6-yl)oxy)-N-(cyclopropylmethyl)-N-methylacetamide] were 89% and less than 100 nM.
Taken in the same sequence, the figures for `CNC(=O)COc1ccc2c(c1)N(c1nc(-c3ccc(Cl)s3)nc3c1CS(=O)(=O)C3)CC2` [Compound No. 2-58, 2-((1-(2-(5-Chlorothiophen-2-yl)-6,6-dioxido-5,7-dihydrothieno[3,4-d]pyrimidin-4-yl)indolin-6-yl)oxy)-N-methylacetamide] were 70% and 100 to 1000 nM.
On the same counts, the results for `NC(=O)COc1ccc2c(c1)N(c1nc(-c3ccc(Cl)s3)nc3c1CS(=O)(=O)C3)CC2` [Compound No. 2-59, 2-((1-(2-(5-Chlorothiophen-2-yl)-6,6-dioxido-5,7-dihydrothieno[3,4-d]pyrimidin-4-yl)indolin-6-yl)oxy)acetamide] are 76% and 100 to 1000 nM.
